Literature values as cited in patent US8460687B1, “Peeling compositions” (Cosmoceutical Research Center, priority 2009, dated 2013).
Where two headings read alike, the source gives them in different places.

O=P(O)(O)O[C@H]1[C@H](OP(=O)(O)O)[C@@H](OP(=O)(O)O)[C@H](OP(=O)(O)O)[C@@H](OP(=O)(O)O)[C@H]1OP(=O)(O)O [Phytic acid, inisitol hexakisphosphate]
pH of aqueous solution (0.66 g/l): 2.68
pH of aqueous solution (66 g/l): 0.9
